According to ChEMBL document CHEMBL4732046, “A red-light-activated sulfonamide porphycene for highly efficient photodynamic therapy against hypoxic tumor” (Eur J Med Chem, 2021):

Key:
KYSE-70 cell line [1] = assay: Cytotoxicity against human KYSE-70 cells assessed as cell viability in dark measured after 24 hrs by MTT assay; assay type: functional, cell-based; conditions: KYSE-70, 24 h
A-375 [2] = assay: Photocytotoxicity against human A-375 cells assessed as reduction in cell viability irradiated with 640 +/- 15 nm red LED for 4 hrs measured after 24 hrs by MTT assay; assay type: functional, cell-based; conditions: A-375, light or radiation study
B16 [3] = assay: Photocytotoxicity against mouse B16 cells assessed as reduction in cell viability irradiated with 640 +/- 15 nm red LED for 4 hrs measured after 24 hrs by MTT assay; assay type: functional, cell-based; conditions: B16, light or radiation study
HeLa [4] = assay: Photocytotoxicity against human HeLa cells assessed as reduction in cell viability irradiated with 640 +/- 15 nm red LED for 4 hrs measured after 24 hrs under hypoxic condition by MTT assay; assay type: functional, cell-based; conditions: light or radiation study
KYSE-70 cell line [5] = assay: Photocytotoxicity against human KYSE-70 cells assessed as reduction in cell viability irradiated with 640 +/- 15 nm red LED for 4 hrs measured after 24 hrs under hypoxic condition by MTT assay; assay type: functional, cell-based; conditions: KYSE-70, light or radiation study
A-375 [6] = assay: Photocytotoxicity against human A-375 cells assessed as reduction in cell viability irradiated with 640 +/- 15 nm red LED for 4 hrs measured after 24 hrs under hypoxic condition by MTT assay; assay type: functional, cell-based; conditions: A-375, light or radiation study
HeLa [7] = assay: Photo-therapeutic index, ratio of LD50 for photocytotoxicity against human HeLa cells assessed as reduction in cell viability irradiated with 640 +/- 15 nm red LED for 4 hrs measured after 24 hrs by MTT assay to LD50 for cytotoxicity against human HeLa cells assessed as cell viability in dark measured after 24 hrs by MTT assay; assay type: functional
HeLa [8] = assay: Cytotoxicity against human HeLa cells assessed as cell viability in dark measured after 24 hrs by MTT assay; assay type: functional, cell-based
A-375 [9] = assay: Cytotoxicity against human A-375 cells assessed as cell viability in dark measured after 24 hrs by MTT assay; assay type: functional, cell-based; conditions: A-375, 24 h
B16 [10] = assay: Cytotoxicity against mouse B16 cells assessed as cell viability in dark measured after 24 hrs by MTT assay; assay type: functional, cell-based; conditions: B16, 24 h
KYSE-70 cell line [11] = assay: Photocytotoxicity against human KYSE-70 cells assessed as reduction in cell viability irradiated with 640 +/- 15 nm red LED for 4 hrs measured after 24 hrs by MTT assay; assay type: functional, cell-based; conditions: KYSE-70, light or radiation study
HeLa [12] = assay: Photocytotoxicity against human HeLa cells assessed as reduction in cell viability irradiated with 640 +/- 15 nm red LED for 4 hrs measured after 24 hrs by MTT assay; assay type: functional, cell-based; conditions: light or radiation study
B16 [13] = assay: Photocytotoxicity against mouse B16 cells assessed as reduction in cell viability irradiated with 640 +/- 15 nm red LED for 4 hrs measured after 24 hrs under hypoxic condition by MTT assay; assay type: functional, cell-based; conditions: B16, light or radiation study

| Structure (SMILES) | DC50 (KYSE-70 cell line [1]) | DC50 (A-375 [2]) | DC50 (B16 [3]) | DC50 (HeLa [4]) | DC50 (KYSE-70 cell line [5]) | DC50 (A-375 [6]) | Ratio (HeLa [7]) | DC50 (HeLa [8]) | DC50 (A-375 [9]) | DC50 (B16 [10]) | DC50 (KYSE-70 cell line [11]) | DC50 (HeLa [12]) | DC50 (B16 [13]) |
| --- | --- | --- | --- | --- | --- | --- | --- | --- | --- | --- | --- | --- | --- |
| CC(C)(C)C1=Cc2nc1ccc1[nH]c(cc1C(C)(C)C)c1nc(ccc3[nH]c2cc3S(=O)(=O)NCCOCCO)C(S(=O)(=O)NCCOCCO)=C1 | 28 µM | 23 nM | 168 nM | 329 nM | 24 nM | 57 nM | 73 | 24 µM | 28 µM | 57 µM | 5 nM | 69 nM | 370 nM |
| CC/N=c1/cc2sc3cc(N(CC)CC)ccc3nc-2c2ccccc12 | 4 µM | 507 nM | 930 nM | 1030 nM | 809 nM | 1300 nM |  | 7 µM | 1 µM | 11 µM | 305 nM | 95 nM | 1890 nM |
